Results on one sequence are retold here after patent US9357777B2, “Method for effective management of helicoverpa armigera” (priority 2012, dated 2016).

The target of the assay is T1, bovine trypsin (Bos taurus, UniProt P00760).
T1 construct: purchased Sigma-Aldrich
T1 sequence (P00760 24-246): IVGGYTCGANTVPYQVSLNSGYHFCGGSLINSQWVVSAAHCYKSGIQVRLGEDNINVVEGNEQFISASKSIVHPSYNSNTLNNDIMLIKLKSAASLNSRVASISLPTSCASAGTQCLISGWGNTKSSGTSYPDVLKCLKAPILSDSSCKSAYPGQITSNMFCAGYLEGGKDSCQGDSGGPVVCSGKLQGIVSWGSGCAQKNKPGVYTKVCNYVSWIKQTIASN
The assay is described as follows: Inhibition kinetics with bovine trypsin (BApNA substrate). The assay is classed as biochemical. The procedure:
Michaelis-Menten constant (Km) for trypsin was calculated by using various concentrations of BApNA substrate (1 to 5 mM), and then plotting double reciprocal curve with 1/(v) and 1/[S]. The kinetic properties of IRDs were analysed over a range of concentration of inhibitors (1 μM to 1 mM). IC50 values for each inhibitor were calculated from the sigmoid curve indicating the best fit for the percentage inhibition data obtained. The values of Ki values for each inhibitor were calculated directly from IC50 values using Cheng-Prusoff's classical equation (Copeland et al., 1995).

Bridges are numbered along the chain shown (N, C = ends). Where no end group is shown, it is not given here.

The Ki is a measure of affinity in units of concentration, obtained from inhibition or displacement. As a reminder, the IC50 is the concentration at which inhibition is half-maximal. Regarding “QPICTNSSAGLKGCNYYNADGTFICEGESDPNHPKACPKNCDPNIAYSLC (disulfide 4-41, 14-50; cysteines drawn unpaired) [IRD-9]”, the Ki (calculated from IC50 by Cheng-Prusoff's equation, read-out: Inhibition constant (Ki)) was roughly 2200 nM. For the same sequence, the IC50 (substrate BApNA 1 mM, FIG. 2C) was roughly 2200 nM.
